According to patent EP0933350A1, “Tricyclic retinoids, methods for their production and use” (LIGAND PHARMACEUTICALS INCORPORATED, priority 1994, dated 1996):

Legend:
RARβ = molecular target: T1, RARβ (Homo sapiens, UniProt P10826); experiment: co-transfection assay (RAR/RXR agonist activity, luciferase reporter in CV-1 cells); format: cell-based; conditions: potency = EC50, agonist, 40 hours, read-out: RARβ Pot
T1 sequence (P10826 1-448 isoform P10826-2): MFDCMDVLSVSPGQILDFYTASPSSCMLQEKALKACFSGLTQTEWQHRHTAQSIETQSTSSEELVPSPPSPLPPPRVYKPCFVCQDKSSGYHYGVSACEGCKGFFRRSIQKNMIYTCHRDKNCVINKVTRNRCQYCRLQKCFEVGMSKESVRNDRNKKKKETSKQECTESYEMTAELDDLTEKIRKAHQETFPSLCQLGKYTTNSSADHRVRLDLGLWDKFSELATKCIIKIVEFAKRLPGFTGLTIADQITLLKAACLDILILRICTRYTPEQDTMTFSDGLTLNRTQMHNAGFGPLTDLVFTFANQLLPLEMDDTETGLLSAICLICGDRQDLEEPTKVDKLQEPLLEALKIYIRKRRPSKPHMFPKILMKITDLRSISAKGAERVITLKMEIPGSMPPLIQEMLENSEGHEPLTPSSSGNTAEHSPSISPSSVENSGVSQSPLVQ

RXRγ [1] = molecular target: T2, RXRγ (Mus musculus, UniProt P28705); experiment: as above; format: cell-based; conditions: read-out: RXRγ Pot
T2 sequence (P28705 1-463): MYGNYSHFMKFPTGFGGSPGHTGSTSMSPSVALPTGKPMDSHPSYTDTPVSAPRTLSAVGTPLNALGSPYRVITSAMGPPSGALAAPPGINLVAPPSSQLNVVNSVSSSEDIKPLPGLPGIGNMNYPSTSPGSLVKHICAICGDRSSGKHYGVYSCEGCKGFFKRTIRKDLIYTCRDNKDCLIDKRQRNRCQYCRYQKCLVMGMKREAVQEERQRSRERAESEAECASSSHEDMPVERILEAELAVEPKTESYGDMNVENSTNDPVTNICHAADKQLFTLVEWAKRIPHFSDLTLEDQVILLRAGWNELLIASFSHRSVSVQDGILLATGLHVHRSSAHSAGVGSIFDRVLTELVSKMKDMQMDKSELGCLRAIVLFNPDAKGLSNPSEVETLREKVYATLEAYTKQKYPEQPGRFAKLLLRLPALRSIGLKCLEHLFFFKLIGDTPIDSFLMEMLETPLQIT

RXRα = molecular target: T3, RXRα (Homo sapiens, UniProt P19793); experiment: competitive binding of tritiated retinoids to retinoid receptors; conditions: competition with tritiated retinoid, Cheng-Prussof equation
T3 sequence (P19793 1-462): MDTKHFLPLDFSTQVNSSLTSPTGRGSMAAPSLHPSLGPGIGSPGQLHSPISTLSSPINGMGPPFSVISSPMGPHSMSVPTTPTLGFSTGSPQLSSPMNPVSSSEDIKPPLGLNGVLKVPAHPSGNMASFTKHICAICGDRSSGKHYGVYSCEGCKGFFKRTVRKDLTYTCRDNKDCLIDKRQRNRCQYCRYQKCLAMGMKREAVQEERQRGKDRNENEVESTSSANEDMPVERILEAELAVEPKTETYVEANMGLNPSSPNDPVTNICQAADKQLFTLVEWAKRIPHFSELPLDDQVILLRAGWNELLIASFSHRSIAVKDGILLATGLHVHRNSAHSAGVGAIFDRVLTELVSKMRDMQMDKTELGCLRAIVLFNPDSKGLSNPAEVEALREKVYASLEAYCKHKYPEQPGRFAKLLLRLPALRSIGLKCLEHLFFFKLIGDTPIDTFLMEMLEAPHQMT

RXRγ [2] = molecular target: T2, RXRγ; experiment: as above; conditions: competition with tritiated retinoid, Cheng-Prussof equation
ME 180 cell line = experiment: viability (tetrazolium dye, mitochondrial function); format: cell-based; conditions: Homo sapiens, 96 hours, read-out: MTS IC50
AML-193 cell line [3] = experiment: as above; format: cell-based; conditions: Homo sapiens, 96 hours, read-out: MTS IC50
AML-193 cell line [4] = experiment: incorporation of 3H-thymidine (antiproliferative); conditions: Homo sapiens, 96 h, read-out: TdR IC50 (nM)

SMILES | EC50 (RARβ) [nM] | EC50 (RXRγ [1]) [nM] | Kd (RXRα) [nM] | Kd (RXRγ [2]) [nM] | IC50 (ME 180 cell line) [nM] | IC50 (AML-193 cell line [3]) [nM] | IC50 (AML-193 cell line [4]) [nM]
CC(/C=C/C=C1/CCOc2cc3c(cc21)C(C)(C)CCC3(C)C)=C\C(=O)O [Compound 144b] | 3 | 40 | 59 | 85 | 10 | 1000 | 0.6
CC(/C=C/CN1CCCCc2cc3c(cc21)C(C)(C)CCC3(C)C)=C\C(=O)O [Compound 138b, (2E,4E)-3-Methyl-6-[7,7,10,10-tetramethyl-2,3,4,5,7,8,9,10-octahydronaphtho[2,3-6]azepinyl)hexa-2,4-dienoic acid] | > 10000 | 301 | 136 | 508 |  |  | 
CC(/C=C/C=C1\CCCc2cc3c(cc21)C(C)(C)CCC3(C)C)=C\C(=O)O [Compound 109b, (2E,4E)-3-Methyl-6-[(E)-3,4,5,6,7,8-hexahydro-5,5,8,8-tetramethyl-2H-anthracen-1-ylidene]hexa-2,4-dienoic acid] | 3 | 2270 | 340 | 382 | 100 | 1000 | 500
CC(/C=C/C=C1\CCOc2cc3c(cc21)C(C)(C)CCC3(C)C)=C\C(=O)O [Compound 119b, (2E,4E)-3-Methyl-6-[(E)-2,3,6,7,8,9-hexahydro-6,6,9,9-tetramethylbenzo[g]chromen-4-ylidene]hexa-2,4-dienoic acid] | 1 | 742 | 246 | 398 | 2 | 1000 | 0.6
CC(/C=C/C=C1/CCCc2cc3c(cc21)C(C)(C)CCC3(C)C)=C\C(=O)O [Compound 101b, (2E,4E)-3-Methyl-6-[(Z)-3,4,5,6,7,8-hexahydro-5,5,8,8-tetramethyl-2H-anthracen-1-ylidene]hexa-2,4-dienoic acid] | 8 | 41 | 34 | 48 | 75 | 1000 | 37
